Data: the supplement of paper PMC10307832

Columns and labels:
Assay in all cases: relative viability (nuclei count vs DMSO), 5 days (fraction); higher = more cells survive
XMD14-99 + AZD7762 = compound: CN1CCN(CC1)C2=CC(=C(C=C2)NC3=NC(=C(S3)C(=O)C4=C(C=CC=C4Cl)Cl)N)OC [XMD14-99] + NC(=O)Nc1cc(-c2cccc(F)c2)sc1C(=O)N[C@H]1CCCNC1 [AZD7762] (partner 0.2 µM)
Method in brief: (§1)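 One day after seeding in 1536-well plates, lung cancer cell lines were dosed by pin tool. Dosing was either single-drug or a fixed anchor-drug dose plus five library-drug doses (not always all listed) in √10 steps. After 5 days, nuclei were stained in one fix-and-stain step and counted on 4× images, and relative viability is the nuclei count of treated wells over that of vehicle wells, given as the median of duplicate plates.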

XMD14-99 + OSI-027 = compound: CN1CCN(CC1)C2=CC(=C(C=C2)NC3=NC(=C(S3)C(=O)C4=C(C=CC=C4Cl)Cl)N)OC [XMD14-99] + COc1cccc2cc(-c3nc([C@H]4CC[C@H](C(=O)O)CC4)n4ncnc(N)c34)[nH]c12 [OSI-027] (partner 0.5 µM)
Method in brief: as §1

AZD1208 + Alpelisib = compound: N[C@@H]1CCCN(c2c(/C=C3\SC(=O)NC3=O)cccc2-c2ccccc2)C1 [AZD1208] + Cc1nc(NC(=O)N2CCC[C@H]2C(N)=O)sc1-c1ccnc(C(C)(C)C(F)(F)F)c1 [Alpelisib] (partner 2 µM)
Method in brief: as §1

XMD14-99 + Tozasertib = compound: CN1CCN(CC1)C2=CC(=C(C=C2)NC3=NC(=C(S3)C(=O)C4=C(C=CC=C4Cl)Cl)N)OC [XMD14-99] + Cc1cc(Nc2cc(N3CCN(C)CC3)nc(Sc3ccc(NC(=O)C4CC4)cc3)n2)n[nH]1 [Tozasertib] (partner 0.1 µM)
Method in brief: as §1

Cell Line | relative viability (XMD14-99 + AZD7762; first compound 0.08 µM) | relative viability (XMD14-99 + AZD7762; first compound 0.8 µM) | relative viability (XMD14-99 + AZD7762; first compound 2.53 µM) | relative viability (XMD14-99 + AZD7762; first compound 8 µM) | relative viability (XMD14-99 + OSI-027; first compound 0.08 µM) | relative viability (XMD14-99 + OSI-027; first compound 0.8 µM) | relative viability (XMD14-99 + OSI-027; first compound 2.53 µM) | relative viability (XMD14-99 + OSI-027; first compound 8 µM) | relative viability (AZD1208 + Alpelisib; first compound 0.08 µM) | relative viability (AZD1208 + Alpelisib; first compound 0.253 µM) | relative viability (AZD1208 + Alpelisib; first compound 0.8 µM) | relative viability (AZD1208 + Alpelisib; first compound 2.53 µM) | relative viability (AZD1208 + Alpelisib; first compound 8 µM) | relative viability (XMD14-99 + Tozasertib; first compound 0.08 µM) | relative viability (XMD14-99 + Tozasertib; first compound 0.8 µM) | relative viability (XMD14-99 + Tozasertib; first compound 2.53 µM) | relative viability (XMD14-99 + Tozasertib; first compound 8 µM)
A-427 | 0.692 | 0.621 | 0.496 | 0.454 | 0.457 | 0.421 | 0.401 | 0.311 | 1.02 | 1.07 | 1.02 | 1.02 | 0.97 | 0.224 | 0.227 | 0.201 | 0.188
NCI-H460 | 0.619 | 0.601 | 0.634 | 0.453 | 0.626 | 0.626 | 0.646 | 0.269 | 0.502 | 0.408 | 0.458 | 0.46 | 0.409 | 0.408 | 0.376 | 0.45 | 0.188
NCI-H1703 | 0.0933 | 0.124 | 0.143 | 0.118 |  |  |  |  | 0.338 | 0.302 | 0.301 | 0.31 | 0.287 |  |  |  | 
NCI-H1792 | 0.822 | 0.556 | 0.599 | 0.305 | 0.71 | 0.686 | 0.657 | 0.413 | 0.629 | 0.742 | 0.579 | 0.608 | 0.535 |  |  |  | 
Calu-6 |  |  |  |  |  |  |  |  | 0.993 | 1.03 | 0.889 | 0.918 | 0.818 |  |  |  | 
SW 1573 |  |  |  |  | 0.629 | 0.758 | 0.599 | 0.493 | 0.65 | 0.705 | 0.595 | 0.505 | 0.592 | 0.168 | 0.286 | 0.198 | 0.21
RERF-LC-KJ | 0.902 | 1 | 0.86 | 0.794 | 0.572 | 0.556 | 0.527 | 0.366 | 0.708 | 0.762 | 0.703 | 0.652 | 0.607 | 0.507 | 0.464 | 0.408 | 0.374
EMC-BAC-2 | 1.15 | 1.11 | 1.08 | 0.835 | 0.362 | 0.384 | 0.313 | 0.292 | 0.752 | 0.74 | 0.636 | 0.701 | 0.62 | 0.28 | 0.249 | 0.27 | 0.254
LK-2 | 0.375 | 0.41 | 0.354 | 0.235 | 0.19 | 0.182 | 0.162 | 0.179 | 0.85 | 0.759 | 0.618 | 0.567 | 0.477 | 0.171 | 0.185 | 0.171 | 0.192
NCI-H2228 |  |  |  |  | 0.687 | 0.583 | 0.505 | 0.199 | 0.706 | 0.629 | 0.609 |  | 0.466 | 0.234 | 0.258 | 0.187 | 0.148
NCI-H322M | 0.593 | 0.542 | 0.583 | 0.509 | 0.56 | 0.581 | 0.492 | 0.372 | 0.718 | 0.718 | 0.75 | 0.73 | 0.821 | 0.501 | 0.488 | 0.558 | 0.414
